Assay results published in ChEMBL document CHEMBL3045936, “Synthesis of new piperidyl indanone derivatives as anticonvulsant agents” (Med Chem Res, 2012).
Active and inactive are the calls of the source. The calls are words filed in the database; no cut-off is given here.

Key:
[1] = tested on: Mus musculus; test: Anticonvulsant activity in Mus musculus Swiss albino (mouse) assessed as protection against maximal electroshock-induced seizures at 300 mg/kg, ip after 4 hr; format: functional, organism-based; set-up: dose 300 mg/kg
[2] = tested on: Mus musculus; test: Anticonvulsant activity in ip dosed Mus musculus Swiss albino (mouse) assessed as protection against maximal electroshock-induced seizures after 0.5 hr; format: functional; conditions: read-out: MED
[3] = tested on: Mus musculus; test: Neurotoxicity in Mus musculus Swiss albino (mouse) assessed as potentiation of ethanol-mediated effect at 100 to 300 mg/kg, ip administered 1 hr followed by ethanol challenge; format: toxicity, organism-based; set-up: dose 100-300 mg/kg, route intraperitoneal; conditions: in vivo
[4] = tested on: Mus musculus; test: Anticonvulsant activity in ip dosed Mus musculus Swiss albino (mouse) assessed as protection against maximal electroshock-induced seizures after 4 hr; format: functional; conditions: read-out: MED
[5] = tested on: Mus musculus; test: Anticonvulsant activity in ip dosed Mus musculus Swiss albino (mouse) assessed as protection against subcutaneous pentylenetetrazole-induced seizures after 0.5 hr; format: functional; conditions: read-out: MED
[6] = tested on: Mus musculus; test: Anticonvulsant activity in ip dosed Mus musculus Swiss albino (mouse) assessed as protection against subcutaneous pentylenetetrazole-induced seizures after 4 hr; format: functional; conditions: read-out: MED
[7] = tested on: Mus musculus; test: Neurotoxicity in ip dosed Mus musculus Swiss albino (mouse) assessed as minimal motor impairment after 0.5 hr by rotorod test; format: toxicity, organism-based; conditions: in vivo
[8] = tested on: Mus musculus; test: Neurotoxicity in ip dosed Mus musculus Swiss albino (mouse) assessed as minimal motor impairment after 4 hr by rotorod test; format: toxicity, organism-based; conditions: in vivo
[9] = tested on: Mus musculus; test: Anticonvulsant activity in Mus musculus Swiss albino (mouse) assessed as protection against subcutaneous pentylenetetrazole-induced seizures at 300 mg/kg, ip after 4 hr; format: functional, organism-based; set-up: dose 300 mg/kg
[10] = tested on: Mus musculus; test: Neurotoxicity in Mus musculus Swiss albino (mouse) assessed as minimal motor impairment at 300 mg/kg, ip after 0.5 hr by rotorod test; format: toxicity, organism-based; set-up: dose 300 mg/kg, route intraperitoneal; conditions: in vivo
[11] = tested on: Mus musculus; test: Anticonvulsant activity in Mus musculus Swiss albino (mouse) assessed as protection against subcutaneous pentylenetetrazole-induced seizures at 300 mg/kg, ip after 0.5 hr; format: functional, organism-based; set-up: dose 300 mg/kg
[12] = Lipophilicity, log P of the compound; format: physicochemical; conditions: octanol/water
[13] = tested on: Rattus norvegicus; test: Anticonvulsant activity in Rattus norvegicus Wistar (rat) assessed as increase in GABA level in cerebellum region measured per 100 mg of tissue at 100 mg/kg, ip after 2 hr (reference value: 25.27 +/- 0.57 ug); format: functional; conditions: route intraperitoneal
[14] = tested on: Rattus norvegicus; test: Anticonvulsant activity in Rattus norvegicus Wistar (rat) assessed as increase in GABA level in olfactory lob region measured per 100 mg of tissue at 100 mg/kg, ip after 2 hr (reference value: 13.22 +/- 0.03 ug); format: functional; conditions: route intraperitoneal
[15] = tested on: Rattus norvegicus; test: Anticonvulsant activity in Rattus norvegicus Wistar (rat) assessed as increase in GABA level in mid brain region measured per 100 mg of tissue at 100 mg/kg, ip after 2 hr (reference value: 44.38 +/- 0.219 ug); format: functional; conditions: route intraperitoneal
[16] = tested on: Rattus norvegicus; test: Anticonvulsant activity in Rattus norvegicus Wistar (rat) assessed as increase in GABA level in medulla oblongata region measured per 100 mg of tissue at 100 mg/kg, ip after 2 hr (reference value: 40.57 +/- 0.2 ug); format: functional; conditions: route intraperitoneal
[17] = tested on: Mus musculus; test: Neurotoxicity in Mus musculus Swiss albino (mouse) assessed as minimal motor impairment at 300 mg/kg, ip after 4 hr by rotorod test; format: toxicity, organism-based; set-up: dose 300 mg/kg, route intraperitoneal; conditions: in vivo

logP [12] | SMILES | Activity [1] | minimal effective dose [2] [mg/kg] | Activity [3] | minimal effective dose [4] [mg/kg] | minimal effective dose [5] [mg/kg] | minimal effective dose [6] [mg/kg] | MTC [7] [mg/kg] | MTC [8] [mg/kg] | Activity [9] | Activity [10] | Activity [11] | Activity [13] [µg] | Activity [14] [µg] | Activity [15] [µg] | Activity [16] [µg] | Activity [17]
 | COc1cc2c(cc1OC)C(=O)C(CC1CCN(C(=S)Nc3cccc([N+](=O)[O-])c3)CC1)C2 (stereo not drawn) | inactive | 300 |  |  |  |  |  |  |  |  |  |  |  |  |  | 
 | CCCCNC(=S)N1CCC(CC2Cc3cc(OC)c(OC)cc3C2=O)CC1 (stereo not drawn) |  | 100 | Non-toxic | 100 | 100 | 300 | 300 | 300 |  |  |  |  |  |  |  | 
 | COc1cc2c(cc1OC)C(=O)C(CC1CCN(C(=S)Nc3ccccc3[N+](=O)[O-])CC1)C2 (stereo not drawn) |  | 100 |  | 300 |  |  |  | 300 | inactive | Non-toxic | inactive |  |  |  |  | 
 | COc1cc2c(cc1OC)C(=O)C(CC1CCN(C(=S)Nc3cccc(Cl)c3)CC1)C2 (stereo not drawn) | inactive | 300 |  |  |  |  |  |  |  |  |  |  |  |  |  | 
5.11 | COc1cc2c(cc1OC)C(=O)C(CC1CCN(C(=S)Nc3ccc(Cl)cc3)CC1)C2 (stereo not drawn) |  | 30 | Non-toxic | 100 | 100 | 300 | 100 | 300 |  |  |  | 27.66 | 13.47 | 44.81 | 40.75 | 
4.58 | COc1cc2c(cc1OC)C(=O)C(CC1CCN(C(=S)Nc3ccc([N+](=O)[O-])cc3)CC1)C2 (stereo not drawn) |  | 30 | Non-toxic | 300 | 100 |  | 300 |  | inactive |  |  | 28.06 | 15.71 | 59.33 | 35.13 | Non-toxic
 | O=C1NC(=O)C(c2ccccc2)(c2ccccc2)N1 [PHENYTOIN] |  | 30 |  | 30 |  |  | 100 | 100 | inactive |  | inactive |  |  |  |  | 
 | CCCNC(=S)N1CCC(CC2Cc3cc(OC)c(OC)cc3C2=O)CC1 (stereo not drawn) |  | 100 | Non-toxic | 300 |  | 300 | 300 |  |  |  | inactive |  |  |  |  | Non-toxic
 | COc1cc2c(cc1OC)C(=O)C(CC1CCN(C(=S)Nc3ccccc3Cl)CC1)C2 (stereo not drawn) |  | 100 | Toxic | 300 | 300 | 300 | 300 |  |  |  |  |  |  |  |  | Non-toxic
4.58 | COc1cc2c(cc1OC)C(=O)C(CC1CCN(C(=S)Nc3ccc(C)cc3)CC1)C2 (stereo not drawn) |  | 30 |  | 100 | 100 | 300 | 300 |  |  |  |  | 31.83 | 15.62 | 61.05 | 49.82 | Non-toxic
 | COc1cc2c(cc1OC)C(=O)C(CC1CCN(C(=S)Nc3cccc(C)c3)CC1)C2 (stereo not drawn) | inactive | 300 |  |  |  |  |  |  |  |  |  |  |  |  |  | 
 | COc1cc2c(cc1OC)C(=O)C(CC1CCN(C(=S)Nc3ccccc3)CC1)C2 (stereo not drawn) |  | 100 |  | 300 | 100 | 300 | 300 |  |  |  |  |  |  |  |  | Non-toxic
 | NC(=O)N1c2ccccc2C=Cc2ccccc21 [CARBAMAZEPINE] |  | 30 |  | 100 | 300 | 100 | 300 |  |  |  |  |  |  |  |  | Non-toxic
 | COc1cc2c(cc1OC)C(=O)C(CC1CCN(C(=S)Nc3ccccc3C)CC1)C2 (stereo not drawn) | inactive | 100 | Non-toxic |  | 300 |  | 100 | 300 | inactive |  |  |  |  |  |  | 
